Test results: ChEMBL document CHEMBL3870345, “Bioactive chemical constituents from the root bark of Morus australis” (Bioorg Med Chem Lett, 2017)
pIC50: −log10 of the molar value. ≈ marks a conversion by molar mass, not a printed value.

Legend:
[1] = Antiplatelet aggregatory activity against New Zealand white rabbit platelets at 100 uM preincubated for 2 to 3 mins followed by ADP-addition measured after 4 mins by turbidometric method relative to vehicle control; assay type: functional, Oryctolagus cuniculus, Platelet
[2] = Antiplatelet aggregatory activity against New Zealand white rabbit platelets at 100 uM preincubated for 2 to 3 mins followed by arachidonic acid -addition measured after 4 mins by turbidometric method relative to vehicle control; assay type: functional, Oryctolagus cuniculus, Platelet
[3] = Antiplatelet aggregatory activity against New Zealand white rabbit platelets at 100 uM preincubated for 2 to 3 mins followed by PAF-addition measured after 4 mins by turbidometric method relative to vehicle control; assay type: functional, Oryctolagus cuniculus, Platelet
[4] = Cytotoxicity against mouse RAW264.7 cells assessed as cell viability at 25 ug/ml measured after 24 hrs in presence of LPS by MTT assay (reference value: 96.3 +/- 1%); assay type: toxicity; conditions: read-out: Activity
[5] = Cytotoxicity against mouse RAW264.7 cells assessed as cell viability at 12.5 ug/ml measured after 24 hrs in presence of LPS by MTT assay (reference value: 96.3 +/- 1%); assay type: toxicity; conditions: read-out: Activity
[6] = Cytotoxicity against mouse RAW264.7 cells assessed as cell viability at 3.125 ug/ml measured after 24 hrs in presence of LPS by MTT assay (reference value: 96.3 +/- 1%); assay type: toxicity; conditions: read-out: Activity
[7] = Cytotoxicity against mouse RAW264.7 cells assessed as cell viability at 6.25 ug/ml measured after 24 hrs in presence of LPS by MTT assay (reference value: 96.3 +/- 1%); assay type: toxicity; conditions: read-out: Activity
[8] = Cytotoxicity against mouse RAW264.7 cells assessed as cell viability at 50 ug/ml measured after 24 hrs in presence of LPS by MTT assay (reference value: 96.3 +/- 1%); assay type: toxicity; conditions: read-out: Activity
RAW264.7 [9] = experiment: Inhibition of LPS-induced NO production in mouse RAW264.7 cells at 3.125 ug/ml measured after 24 hrs by Griess assay relative to LPS-treated control; assay type: functional; conditions: RAW264.7, 24 h
RAW264.7 [10] = experiment: Inhibition of LPS-induced NO production in mouse RAW264.7 cells at 6.25 ug/ml measured after 24 hrs by Griess assay relative to LPS-treated control; assay type: functional; conditions: RAW264.7, 24 h
RAW264.7 [11] = experiment: Inhibition of LPS-induced NO production in mouse RAW264.7 cells at 12.5 ug/ml measured after 24 hrs by Griess assay relative to LPS-treated control; assay type: functional; conditions: RAW264.7, 24 h
RAW264.7 [12] = experiment: Inhibition of LPS-induced NO production in mouse RAW264.7 cells measured after 24 hrs by Griess assay; assay type: functional, cell-based; conditions: for IC50: RAW264.7, 24 h
[13] = Antiplatelet aggregatory activity against New Zealand white rabbit platelets preincubated for 2 to 3 mins followed by ADP-addition measured after 4 mins by turbidometric method; assay type: functional, cell-based, Oryctolagus cuniculus; conditions: platelet
[14] = Cytotoxicity against mouse RAW264.7 cells assessed as cell viability at 1.563 ug/ml measured after 24 hrs in presence of LPS by MTT assay (reference value: 96.3 +/- 1%); assay type: toxicity; conditions: read-out: Activity
RAW264.7 [15] = experiment: Inhibition of LPS-induced NO production in mouse RAW264.7 cells at 1.563 ug/ml measured after 24 hrs by Griess assay relative to LPS-treated control; assay type: functional; conditions: RAW264.7, 24 h
[16] = Antiplatelet aggregatory activity against New Zealand white rabbit platelets at 10 uM preincubated for 2 to 3 mins followed by PAF-addition measured after 4 mins by turbidometric method relative to vehicle control; assay type: functional, Oryctolagus cuniculus, Platelet
[17] = Antiplatelet aggregatory activity against New Zealand white rabbit platelets at 50 uM preincubated for 2 to 3 mins followed by arachidonic acid -addition measured after 4 mins by turbidometric method relative to vehicle control; assay type: functional, Oryctolagus cuniculus, Platelet
[18] = Antiplatelet aggregatory activity against New Zealand white rabbit platelets preincubated for 2 to 3 mins followed by arachidonic acid-addition measured after 4 mins by turbidometric method; assay type: functional, cell-based, Oryctolagus cuniculus; conditions: platelet
[19] = Cytotoxicity against mouse RAW264.7 cells assessed as cell viability at 1.562 ug/ml measured after 24 hrs in presence of LPS by MTT assay (reference value: 96.3 +/- 1%); assay type: toxicity; conditions: read-out: Activity
RAW264.7 [20] = experiment: Inhibition of LPS-induced NO production in mouse RAW264.7 cells at 1.562 ug/ml measured after 24 hrs by Griess assay relative to LPS-treated control; assay type: functional; conditions: RAW264.7, 24 h
RAW264.7 [21] = experiment: Inhibition of LPS-induced NO production in mouse RAW264.7 cells at 25 ug/ml measured after 24 hrs by Griess assay relative to LPS-treated control; assay type: functional; conditions: RAW264.7, 24 h

Structure (SMILES)	Activity [1]	Activity [2]	Activity [3]	viability at 24 h, 25 ug/ml [4]	viability at 24 h, 12.5 ug/ml [5]	viability at 24 h, 3.125 ug/ml [6]	viability at 24 h, 6.25 ug/ml [7]	viability at 24 h, 50 ug/ml [8]	inhibition at 3.125 µg/mL (RAW264.7 [9])	inhibition at 6.25 µg/mL (RAW264.7 [10])	inhibition at 12.5 µg/mL (RAW264.7 [11])	inhibition (RAW264.7 [12])	IC50 (RAW264.7 [12])	further results
C=C(C)C(O)CC[C@]1(C)C=Cc2c(cc3oc(-c4ccc(O)cc4)cc(=O)c3c2O)O1 (some centres undefined)	<60%	<60%	<60%	–	–	–	–	–	–	–	–	–	–	–
CC(C)(O)CCc1c(-c2ccc(O)cc2O)oc2c3c(cc(O)c2c1=O)OC(C)(C)C=C3 [MORUSINOL]	57.88 - 78.98%	50.5%	<60%	36.9 to 49.2%	69.5 to 82.1%	95.9%	81.9 to 91.3%	9.9 to 14.4%	42 to 45.8%	59 to 62.5%	81.4%	Dose-dependent effect	4.1 to 4.6 µg/mL (≈ 9.35 to 10.5 µM)	–
CC(C)=CC1Oc2cc(O)ccc2-c2oc3c4c(cc(O)c3c(=O)c21)OC(C)(C)C=C4 (centres undefined) [CYCLOMORUSIN]	<60%	<60%	<60%	57.6%	81.9%	86.3%	86.2%	14%	46.6%	54.1%	73.7%	Dose-dependent effect	4.5 µg/mL (≈ 10.8 µM)	–
CC(=O)Oc1ccc(-c2oc3c4c(cc(O)c3c(=O)c2CC=C(C)C)OC(C)(C)C=C4)c(OC(C)=O)c1	93.27%	90.01%	90.22%	13.9%	36.6%	91%	80.3%	11.7%	58.7%	69.2%	–	Dose-dependent effect	2.4 µg/mL (≈ 4.76 µM)	pIC50 [13]: 4.99; viability at 24 h, 1.563 ug/ml [14]: 96%; inhibition at 1.563 µg/mL (RAW264.7 [15]): 40.4%
CCCCCCCCCCCCCCCCCCNC(=O)OCC(COP(=O)([O-])OCC[n+]1ccsc1)OC (centres undefined)	–	–	–	–	–	–	–	–	–	–	–	–	–	Activity [16]: 85.96%
CC1(C)C=Cc2c(cc(O)c3c(=O)c4c(oc23)-c2ccc(O)cc2OC(C(C)(C)O)C4)O1 (centres undefined) [NEOCYCLOMORUSIN]	98.57%	99.7%	99.63%	40.8%	48.8%	98.3%	82.4%	12.8%	41.2%	50.8%	–	Dose-dependent effect	6.3 µg/mL (≈ 14.4 µM)	–
CC(=O)Oc1ccccc1C(=O)O [ASPIRIN]	–	–	–	–	–	–	–	–	–	–	–	–	–	Activity [17]: 90.62%
CC(C)=CCc1c(-c2ccc(O)cc2O)oc2c3c(cc(O)c2c1=O)OC(C)(C)C=C3 [MORUSIN]	60.22%	<60%	<60%	69.6%	73.8%	94.5%	83.3%	23.1%	15.1%	23.3%	39.3%	Dose-dependent effect	> 12.5 µg/mL	–
O=[N+]([O-])/C=C\c1ccc(O)cc1	96.35%	96.03%	73.02%	46.9%	48.3%	89%	82.2%	11.9%	59.6%	60%	–	Dose-dependent effect	2.1 µg/mL (≈ 12.7 µM)	pIC50 [13]: 5.01; pIC50 [18]: 5.01; viability at 24 h, 1.562 ug/ml [19]: 94.5%; inhibition at 1.562 µg/mL (RAW264.7 [20]): 46.4%
C=C(C)C(=O)c1c(-c2ccc(O)cc2O)oc2cc3c(c(O)c2c1=O)C=CC(C)(C)O3	<60%	<60%	<60%	–	–	–	–	–	–	–	–	–	–	–
CC(C)=CCC/C(C)=C/Cc1c(-c2ccc(O)cc2O)oc2c(CC=C(C)C)c(O)cc(O)c2c1=O	96.37%	89.66%	90.15%	96.8%	97.1%	100%	99.7%	67%	30%	33.7%	34.1%	Dose-dependent effect	> 25 µg/mL	inhibition at 25 µg/mL (RAW264.7 [21]): 35%
